Experiments:
[1] = biological target: ALK (Homo sapiens (Human), UniProt Q9UM73); assay: Inhibition of ALK kinase activity (Caliper mobility shift); format: biochemical
Procedure: (§1) Inhibition of Compound I Against ALK Kinase Activity
(§2) • I. Preparation of 1× kinase buffer and stop buffer
(§3) 1) 1× Kinase Buffer • 50 mM HEPES. pH 7.5 • 0.0015% Brij-35 • 10 mM MgCl2 • 2 mM DTT • 2) stop buffer • 100 mM HEPES, pH 7.5 • 0.015% Brij-35 • 0.2% Coating Reagent #3 • 50 mM EDTA
(§4) 2. Prepare a Compound Solution to be Tested • Step 2.1 Dilute the compound to 50× of the final desired highest inhibitor concentration in reaction by 100% DMSO. Transfer 100 μl of this compound dilution to a well in a 96-well plate. For example, if desired highest inhibitor concentration is 1 μM, then prepare 50 μM of compound DMSO solution in this step.
(§5) Step 2.2 Further dilute said compound dilution by 3-fold in series, thus obtain 10 concentrations.
(§6) Step 2.3 Add 100 μl of 100% DMSO to two empty wells for no compound control and no enzyme control in the same 96-well plate. Mark the plate as source plate.
(§7) Step 2.4 Prepare an intermediate plate
(§8) Transfer 10 μl of each compound from the source plate to a new 96-well plate as the intermediate plate.
(§9) Add 90 μl of 1× kinase buffer to each well of the intermediate plate. Mix the compounds in the intermediate plate for 10 min on a shaker.
(§10) Transfer 5 μl of each well from the 96-well intermediate plate to a 384-well plate in duplicate. For example, A1 of the 96-well plate is transferred to A1 and A2 of the 384-well plate. A2 of the 96-well plate is transferred to A3 and A4 of the 384-well plate, and so on.
(§11) 4.1 Prepare a 2.5× kinase solution
(§12) Add kinase in 1× kinase base buffer, thus obtain the 2.5× kinase solution.
(§13) 4.2 Prepare a 2.5× peptide solution
(§14) 4.3 In each well of the assay plate obtained in step 3, there was 5 μL of the compound in 10% DMSO.
(§15) 4.4 Transfer the 2.5× enzyme solution to the assay plate.
(§16) 4.5 Incubate at room temperature for 10 min.
(§17) 4.6 Transfer the 2.5× peptide solution to the assay plate.
(§18) 4.7 Kinase reaction and stop
(§19) Incubate at 28° C. for 20 min.
(§20) Add 25 μl of stop buffer to stop reaction.
(§21) Conversion rate of the kinase was read via the Caliper.
(§22) 6.1 Copy conversion data from Caliper program.
(§23) 6.2 Convert conversion values to inhibition values with the following formula: Percent inhibition=(max−conversion)/(max−min)*100
(§24) where “max” stands for DMSO control; and “min” stands for low control.
(§25) 6.3 Fit the data in XLfit excel add-in version 4.3.1 and obtain IC50 values according to the following formula: Y=Bottom+(Top−Bottom)/[…].

[2] = biological target: ALK L1196M (Homo sapiens (Human), UniProt Q9UM73, L1196M); assay: Inhibition of ALK L1196M kinase activity (Caliper mobility shift); format: biochemical
Procedure: as §1, §2, §3, §4, §5, §6, §7, §8, §9, §10, §11, §12, §13, §14, §15, §16, §17, §18, §19, §20, §21, §22, §23, §24, §25

[3] = system: Karpas299 cells; assay: Suppression of Karpas299 cell proliferation (CellTiter-Glo); format: cell-based; details: 3 days incubation; read-out: Inhibition activity on Karpas299 cells IC50
Procedure: (§26) As the amount of ATP can indicate the number of living cells directly, the living cells in culture are able to be quantified by determining the ATP level. In our experiment, we use a living-cell testing kit to quantify the living cells, which utilizes UltraGlow luciferase to generate a stable glow signal in the presence of ATP which is produced by metabolism of living cells, such as respiration. Specifically, a reagent CellTiter-Glo™ was added into cell culture media, and then the luminescent intensity was determined to measure proliferation of cells, as the luminescent intensity is in direct proportion to the ATP level which correlates positively to the number of living cells. The test plate was tested with the Envision (PE).
Cell media: RPMI-1640 medium, fetal calf serum (FCS), antibiotics (Penicillin-Streptomycin)
Assay reagent: Cell Viability Assay Kit CellTiter-Glo
(§27) Others: a 96-well plate, a 384-well plate, DMSO
(§28) Step 3.1 Culturing test cells
Karpas 299 cells were plated into a black 384-well plate, with 2500 cells in 45 μl cell suspension per well. The plate was placed in a carbon dioxide incubator overnight.
(§29) Step 3.2 Preparation of the compounds to be tested
Each compound to be tested was dissolved in DMSO at 10 mM as the stock solution, which was left in a nitrogen-gas tank for storage.
After dilution of 10 μL stock solution (10 mM) into 2.5 mM as a starting working solution, 10 concentrations of the working solutions from 5 μM to 0.25 nM were obtained in duplicate by further dilution in 3-fold series with ECHO.
Step 3.3 Mixing the compound with the test cells
To each well of a new 96-well plate were added 49 μl medium and 1 μl of the compounds to be tested at individual working concentrations (10 concentrations in total). After oscillation,
5 μl of mixture in each well of the 96-well plate was transferred into corresponding wells in the 384-well plate in the step 3.1. The 384-well plate was incubated in the carbon dioxide incubator for 3 days.
To each well of the 384-well plate was added […] reagent Promega CellTiter-Glo. and incubated at room temperature for 10 minutes to stabilize the luminescence signal. The results were read with the PerkinElmer Envision Multi-mode Plate Reader.

[4] = system: Ba/F3 EML4-ALK cells; assay: Suppression of Ba/F3 EML4-ALK cell proliferation (CellTiter-Glo); format: cell-based; details: 3 days incubation
From the text: Cell media: RPMI-1640 medium, fetal calf serum (FCS), antibiotics (Penicillin-Streptomycin), IL-3, puromycin
Cell line: Ba/F3 EML4-ALK
Assay reagent: Cell Viability Assay Kit Celliter-Glo
as §27
as §26, with “in medium” for “in culture”, “a cell viability assay” for “a living-cell testing”, “was assayed by” for “was tested with”
as §28
Ba/F3 EML4-ALK cells were planted into a 384-well plate, with almost 300 cells per well. The plate was placed in a carbon dioxide incubator overnight.
as §29
10 concentrations of the working solutions were obtained in duplicate by dilution in 3-fold series with BRAVO.
Step 3.3 Mixing the compound to be tested with the test cells
The compounds to be tested at individual working concentrations were transferred into corresponding wells in the 384-well plate in the step 3.1, with 5 μM as the initial working concentration, and then the 384-well plate was incubated in the carbon dioxide incubator for 3 days.
To each well of the 384-well plate was added the reagent Promega CellTiter-Glo, and incubated at room temperature for 10 minutes to stabilize the luminescence signal. The results were read by the PerkinElmer Envision Multi-mode Plate Reader.

[5] = system: ALK-positive NSCLC; details: 88 patients with ALK-positive NSCLCs who had undergone Crizotinib therapy, early clinical trial; cited from earlier work

ALK, sequence (Q9UM73 19-1620): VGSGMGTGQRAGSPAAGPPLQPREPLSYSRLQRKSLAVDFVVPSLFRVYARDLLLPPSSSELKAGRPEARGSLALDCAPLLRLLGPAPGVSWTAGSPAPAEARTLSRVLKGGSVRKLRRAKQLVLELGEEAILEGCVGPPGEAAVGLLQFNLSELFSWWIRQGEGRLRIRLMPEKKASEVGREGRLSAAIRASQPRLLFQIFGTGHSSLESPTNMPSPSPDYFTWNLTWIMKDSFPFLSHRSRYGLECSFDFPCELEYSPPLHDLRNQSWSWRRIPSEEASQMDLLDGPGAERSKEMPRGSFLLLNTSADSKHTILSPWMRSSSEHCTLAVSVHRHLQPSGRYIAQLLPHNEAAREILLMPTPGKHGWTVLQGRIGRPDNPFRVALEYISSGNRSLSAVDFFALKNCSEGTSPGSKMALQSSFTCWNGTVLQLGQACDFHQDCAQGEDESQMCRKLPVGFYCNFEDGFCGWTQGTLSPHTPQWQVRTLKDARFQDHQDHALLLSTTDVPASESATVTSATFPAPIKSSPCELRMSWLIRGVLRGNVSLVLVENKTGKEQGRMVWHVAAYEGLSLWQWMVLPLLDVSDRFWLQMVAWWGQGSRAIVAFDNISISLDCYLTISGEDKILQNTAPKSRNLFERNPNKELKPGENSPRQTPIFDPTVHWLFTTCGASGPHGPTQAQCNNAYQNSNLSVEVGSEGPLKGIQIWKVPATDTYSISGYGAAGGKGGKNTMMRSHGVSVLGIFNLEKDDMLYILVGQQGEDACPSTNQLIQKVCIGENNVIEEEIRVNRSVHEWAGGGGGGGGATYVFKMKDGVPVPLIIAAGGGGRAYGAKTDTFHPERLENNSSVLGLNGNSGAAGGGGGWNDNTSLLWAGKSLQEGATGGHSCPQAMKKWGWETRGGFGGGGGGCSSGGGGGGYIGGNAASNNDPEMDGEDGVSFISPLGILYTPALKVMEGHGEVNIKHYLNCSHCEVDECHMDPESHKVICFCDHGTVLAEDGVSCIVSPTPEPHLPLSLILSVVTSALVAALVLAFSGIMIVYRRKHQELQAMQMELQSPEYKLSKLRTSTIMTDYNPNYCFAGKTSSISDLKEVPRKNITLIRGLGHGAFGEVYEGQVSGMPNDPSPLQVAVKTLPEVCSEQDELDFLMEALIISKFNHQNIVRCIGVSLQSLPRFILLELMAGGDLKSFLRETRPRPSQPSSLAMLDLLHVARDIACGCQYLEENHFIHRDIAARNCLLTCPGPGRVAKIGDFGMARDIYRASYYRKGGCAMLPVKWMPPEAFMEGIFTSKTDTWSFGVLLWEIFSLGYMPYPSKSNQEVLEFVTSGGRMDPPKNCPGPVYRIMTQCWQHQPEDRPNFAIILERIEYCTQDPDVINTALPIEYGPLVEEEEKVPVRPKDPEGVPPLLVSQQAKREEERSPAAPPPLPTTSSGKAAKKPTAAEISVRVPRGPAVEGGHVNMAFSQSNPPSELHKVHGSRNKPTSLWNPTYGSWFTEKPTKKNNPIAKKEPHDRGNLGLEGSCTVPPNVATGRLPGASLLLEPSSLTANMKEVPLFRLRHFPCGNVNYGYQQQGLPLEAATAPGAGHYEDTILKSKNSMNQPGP
ALK L1196M, sequence (Q9UM73 19-1620 L1196M): as the sequence (Q9UM73 19-1620) above, with L1178M counted along it

Question: Which results are given for `COc1cc(N2CCN(C(C)C)CC2)c(C)cc1Nc1ncc(OC(F)F)c(Nc2ccccc2S(=O)(=O)C(C)C)n1` [Compound I-115, 5-(difluoromethoxy)-N^2-(4-(4-isopropylpiperazin-1-yl)-2-methoxy-5-methylphenyl)-N^4-(2-(isopropylsulfonyl)phenyl) pyrimidine-2,4-diamine]?
Answer: IC50 [1]: < 1 nM; IC50 [2]: < 1 nM; IC50 [3]: < 50 nM; IC50 [4]: < 20 nM

Question: With `Cc1cc(Nc2ncc(Cl)c(Nc3ccccc3S(=O)(=O)C(C)C)n2)c(OC(C)C)cc1C1CCNCC1` [LDK378, Ceritinib] as the compound, how does the response rate [5] read?
Answer: The response rate was 80%.

— US10695347B2, “Pyrimidine derivative and use thereof” (Hubei Bio-Pharmaceutical Industrial Technological Institute …, priority 2015, dated 2020)
